Test system: human α2β3γ2 GABAARs
Test: In vitro electrophysiological recording assay (automated patch-clamp), α2-GABAAR relative efficacy
Type: cell-based
Conditions: % efficacy normalised to diazepam; GABA EC10-20; concentration generally >= 100 times Ki
Outline: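 Automated whole-cell patch clamp at 20-22° C on L(tk^−) cells (QPatch, −65 mV) or HEK293 cells (SyncroPatch, −80 mV) stably expressing the human receptor. Compound pre-applied ≥1 min, then co-applied with GABA EC10-20; % potentiation of leak-corrected peak current, normalised to diazepam, typically at ≥100× Ki.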

`CCCNC(=O)c1c(N)c2cccc(-c3nc(C)ncc3F)c2[nH]c1=O` [Example 40, 4-Amino-8-(5-fluoro-2-methyl-pyrimidin-4-yl)-2-oxo-N-propyl-1H-quinoline-3-carboxamide] was tested, and the “α2-GABAAR Relative Efficacy (vs. Diazepam)” value (from here on “α2-GABAAR Relative Efficacy”) was 0.29.
For `CCCNC(=O)c1c(N)c2cccc(-c3cnc(C)cc3OC)c2[nH]c1=O` [Example 18, 4-Amino-8-(4-methoxy-6-methyl-3-pyridyl)-2-oxo-N-propyl-1H-quinoline-3-carboxamide], the “α2-GABAAR Relative Efficacy” value was 0.29.
With `CCCNC(=O)c1c(N)c2cccc(-c3cnccc3OC)c2[nH]c1=O` [Example 17, 4-Amino-8-(4-methoxy-3-pyridyl)-2-oxo-N-propyl-1H-quinoline-3-carboxamide] the “α2-GABAAR Relative Efficacy” value was 0.33.

From patent publication US20250197368A1 (priority 2020, published 2025)
